Converted amounts (≈) assume the structure as drawn.

Data set [1] concerns Plasmodium falciparum. Briefly: Antimalarial activity against chloroquine and mefloquine resistant Plasmodium falciparum W2mef infected in human erythrocytes incubated for 72 hrs by LDH assay. Format: functional, cell-based.
Data set [2] has as its system Plasmodium falciparum. Briefly: Antimalarial activity against Plasmodium falciparum NF54 harboring pfs16-LUC-GFP early stage 1 to 3 gametocytes after 48 hrs by MitoTracker Red staining based confocal microscopy. Format: functional. The following applies: NF54, 48 h.
Data set [3] has as its system Plasmodium falciparum. Briefly: Antimalarial activity against Plasmodium falciparum NF54 harboring pfs16-LUC-GFP late stage 4 to 5 gametocytes after 48 hrs by MitoTracker Red staining based confocal microscopy. The following applies: NF54, 48 h. It counts as functional.
In data set [4] the test system is Plasmodium falciparum. Briefly: Antimalarial activity against Plasmodium falciparum NF54 harboring pfs16-LUC-GFP ring stage gametocytes after 24 hrs by MitoTracker Red staining based confocal microscopy. The following applies: NF54, 24 h. It counts as functional.
Data set [5] deals with Plasmodium falciparum. Briefly: Antimalarial activity against Plasmodium falciparum 3D7 asexual blood stage infected in human erythrocytes incubated for 72 hrs by LDH assay. Format: functional, cell-based. The conditions noted are these: 3D7, 72 h.
The nature of data set [6]: Selectivity index, ratio of EC50 for human HepG2 cells to EC50 for Plasmodium falciparum 3D7 asexual blood stage infected in human erythrocytes. Format: toxicity, cell-based. The following applies: read-out: Ratio EC50.
Another data set has as its system HepG2. Briefly: Cytotoxicity against human HepG2 cells assessed as growth inhibition after 48 hrs by Cell Titer-Glo assay. Format: cell-based. The following applies: HepG2, 48 h.
The subject of data set [7] is Plasmodium falciparum. Briefly: Antimalarial activity against synchronous culture of Plasmodium falciparum 3D7 ring stage parasite infected in human erythrocytes incubated for 6 hrs followed by compound wash out and measured after 24 hrs by NanoGlo-reagent based bioluminescence assay. It counts as functional, cell-based.
Data set [8] relates to Plasmodium falciparum. Briefly: Antimalarial activity against synchronous culture of Plasmodium falciparum 3D7 ring stage parasite infected in human erythrocytes incubated for 24 hrs followed by compound wash out and measured after 24 hrs by NanoGlo-reagent based bioluminescence assay. Format: functional, cell-based. The following applies: 3D7, 24 h.
Data set [9] is described as follows: Intrinsic clearance in human liver microsomes at 1 uM in presence of NADPH by LC-MS method. It counts as ADME, microsome. The conditions noted are these: read-out: CLH.
The nature of data set [10]: Intrinsic clearance in mouse liver microsomes at 1 uM in presence of NADPH by LC-MS method. Format: ADME, microsome. The following applies: read-out: CLH. For orientation: Liver microsomes are vesicles of endoplasmic reticulum, rich in cytochrome P450 enzymes.
Data set [11] in a line: Aqueous solubility of the compound at pH 6.5 by nephelometry. Format: physicochemical.
Data set [12] is described as follows: Hepatic extraction ratio in human liver microsomes at 1 uM in presence of NADPH by LC-MS method. Format: ADME, microsome. The conditions noted are these: read-out: ERH.
Data set [13] in a line: Hepatic extraction ratio in mouse liver microsomes at 1 uM in presence of NADPH by LC-MS method. The conditions noted are these: read-out: ERH. Format: ADME, microsome.
Data set [14] is described as follows: Half life in mouse liver microsomes at 1 uM in presence of NADPH by LC-MS method. Format: ADME, microsome.
Data set [15] in a line: Half life in human liver microsomes at 1 uM in presence of NADPH by LC-MS method. Format: ADME, microsome.
Data set [16] can be described thus: Aqueous solubility of the compound at pH 2 by nephelometry. It counts as physicochemical.

By EC50 is commonly meant the concentration at which the effect is half-maximal. Consider `C[C@H]1[C@H](OC(=O)CCC(=O)O)O[C@@H]2O[C@@]3(C)CC[C@H]4[C@H](C)CC[C@@H]1[C@@]24OO3` [ARTESUNATE], for which the EC50 in the data set on Plasmodium falciparum [1] stood at 6 nM; in the data set on Plasmodium falciparum [2], 3 nM; in the data set with Plasmodium falciparum [3] it was 8 nM; with Plasmodium falciparum [4] it was 3 nM; in the data set with Plasmodium falciparum [5], 8 nM.
Consider `Fc1ccc(Nc2nc(NCc3ccccc3)c3ccccc3n2)cc1Cl`, for which the 50% effective concentration (EC50) in the data set on Plasmodium falciparum [1] was 80 nM; in the data set on Plasmodium falciparum [5], 56 nM; in the data set with HepG2, 6300 nM. For the same compound, in data set [6], the selectivity ratio was 114.
Consider `C[C@@H]1CC[C@H]2[C@@H](C)C(=O)O[C@@H]3O[C@@]4(C)CC[C@@H]1[C@]32OO4` [ARTEMISININ], for which the concentration for a half-maximal effect (EC50) in the data set with Plasmodium falciparum [7] was determined as 5 nM; in the data set on Plasmodium falciparum [8] it was 2 nM.
What is called solubility (kinetic) is solubility judged after dilution from a stock solution rather than from solid. One may read the half-life as the time in which the quantity being followed falls by half. With `COc1ccc(Nc2nc(NCc3ccccc3)c3ccccc3n2)cc1`, the figures for the microsomal CLint at 1 µM in data set [9] and in data set [10] were 27 µL/min/mg and 123 µL/min/mg, respectively. The results for the solubility (kinetic) in data set [11] and in data set [16] were 1.6 to 3.1 µM (≈ 0.57 to 1.1 µg/mL) and 25 to 50 µM (≈ 8.91 to 17.8 µg/mL), respectively. Further, the hepatic extraction ratio at 1 µM was 0.51 in data set [12] and 0.73 in data set [13]. Further, the half-life at 1 µM in data set [14] came out at 14 min; in data set [15] it was 65 min. Also, the selectivity ratio in data set [6] is 32. In addition, the values for the half-maximal effective concentration (EC50) in the data set with Plasmodium falciparum [5] and in the data set on HepG2 were 264 nM and 8500 nM, respectively.
Consider `Fc1cc(Nc2nc(NCc3ccccc3)c3ccccc3n2)ccc1Cl`, for which the concentration giving a half-maximal response (EC50) stood at 75 nM in the data set on Plasmodium falciparum [1], 121 nM with Plasmodium falciparum [5] and 6600 nM in the data set on HepG2. For the same compound, the selectivity ratio in data set [6] stood at 55.
Taken in the same sequence, the figures for `CN1CCN(CCNc2nc(Nc3ccc(F)cc3)nc3ccccc23)CC1` were 122 nM, 42 nM, 15300 nM and 362.
Consider `COc1ccc2nc3cc(Cl)ccc3c(Nc3cc(CN4CCCC4)c(O)c(CN4CCCC4)c3)c2n1` [PYRONARIDINE], for which the concentration for a half-maximal effect (EC50) worked out at 25 nM in the data set with Plasmodium falciparum [2], 1400 nM in the data set with Plasmodium falciparum [3] and 16 nM in the data set on Plasmodium falciparum [4].
On to `Clc1cc(Nc2nc(NCc3ccccc3)c3ccccc3n2)ccc1Br`, for which the EC50 in the data set with Plasmodium falciparum [1] worked out at 128 nM; in the data set with Plasmodium falciparum [5], 137 nM; with HepG2, 2900 nM. In [6], the selectivity ratio was found to be 40.

The record behind these values is ChEMBL document CHEMBL3997785, “Optimization of 2-Anilino 4-Amino Substituted Quinazolines into Potent Antimalarial Agents with Oral in Vivo Activity” (J Med Chem, 2017).
